The results in this text go back to patent US9624214B2, “Amino-substituted imidazo[1,2-a]pyridinecarboxamides and their use” (BAYER PHARMA AKTIENGESELLSCHAFT, priority 2012, dated 2017).

For the test, the target named is T1, recombinant guanylate cyclase reporter cell line (Rattus norvegicus, UniProt P19686+P20595).
T1 construct: expressed in transfected cells
T1 sequence (P20595 1-619): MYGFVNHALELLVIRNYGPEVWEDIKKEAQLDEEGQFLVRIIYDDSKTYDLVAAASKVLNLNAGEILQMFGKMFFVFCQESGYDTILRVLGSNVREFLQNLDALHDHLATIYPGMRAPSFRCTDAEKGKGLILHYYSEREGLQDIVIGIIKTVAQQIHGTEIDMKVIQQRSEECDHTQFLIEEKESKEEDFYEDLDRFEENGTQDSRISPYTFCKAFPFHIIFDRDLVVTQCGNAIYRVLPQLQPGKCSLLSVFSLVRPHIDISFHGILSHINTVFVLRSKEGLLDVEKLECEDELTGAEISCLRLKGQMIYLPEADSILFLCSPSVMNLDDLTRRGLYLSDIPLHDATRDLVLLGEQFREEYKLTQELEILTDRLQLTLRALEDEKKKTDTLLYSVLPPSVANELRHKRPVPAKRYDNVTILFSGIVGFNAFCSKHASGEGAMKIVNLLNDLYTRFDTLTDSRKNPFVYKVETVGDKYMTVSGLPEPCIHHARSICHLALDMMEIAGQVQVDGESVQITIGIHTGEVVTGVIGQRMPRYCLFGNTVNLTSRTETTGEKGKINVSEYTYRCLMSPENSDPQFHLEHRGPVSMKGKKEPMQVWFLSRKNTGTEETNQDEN
T1 sequence (P19686 1-690): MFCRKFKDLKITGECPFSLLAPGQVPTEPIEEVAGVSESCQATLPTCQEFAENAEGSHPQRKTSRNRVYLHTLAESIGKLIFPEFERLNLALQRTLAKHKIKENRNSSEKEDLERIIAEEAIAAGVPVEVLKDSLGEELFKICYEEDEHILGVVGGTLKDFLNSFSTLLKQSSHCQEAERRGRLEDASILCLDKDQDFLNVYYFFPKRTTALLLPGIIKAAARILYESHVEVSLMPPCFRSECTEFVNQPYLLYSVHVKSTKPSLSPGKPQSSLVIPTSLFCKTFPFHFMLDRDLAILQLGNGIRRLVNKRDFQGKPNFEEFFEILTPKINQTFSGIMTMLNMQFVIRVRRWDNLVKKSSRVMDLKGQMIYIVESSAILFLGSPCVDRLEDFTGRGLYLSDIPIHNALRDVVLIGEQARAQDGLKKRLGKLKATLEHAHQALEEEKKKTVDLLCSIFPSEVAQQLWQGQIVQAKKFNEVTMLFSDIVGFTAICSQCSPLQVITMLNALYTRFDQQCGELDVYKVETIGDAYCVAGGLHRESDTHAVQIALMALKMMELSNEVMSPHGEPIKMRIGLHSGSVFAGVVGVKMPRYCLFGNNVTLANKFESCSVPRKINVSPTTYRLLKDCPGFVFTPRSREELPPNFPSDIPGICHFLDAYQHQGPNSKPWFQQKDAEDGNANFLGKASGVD
Briefly: B-2. Action on recombinant guanylate cyclase reporter cell line. Format: cell-based. The settings on record: MEC = minimal effective concentration; in some cases mean values from individual determinations. Put shortly:
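Rat recombinant guanylate cyclase reporter cell line measures cellular activity. Value reported as MEC (minimal effective concentration), sometimes averaged over individual determinations.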

Regarding `COCC(C)(N)CNC(=O)c1c(C)nc2c(OCc3c(F)cccc3F)cccn12` (single isomer, unassigned) [Example 214, ent-N-(2-Amino-3-methoxy-2-methylpropyl)-8-[(2,6-difluorobenzyl)oxy]-2-methylimidazo[1,2-a]-pyridine-3-carboxamide], the MEC amounted to 0.30 µM.

Turning to `COCC(C)(N)CNC(=O)c1c(C)nc2c(OCc3c(F)cccc3F)cccn12` (single isomer, unassigned) [Example 215, ent-N-(2-Amino-3-methoxy-2-methylpropyl)-8-[(2,6-difluorobenzyl)oxy]-2-methylimidazo[1,2-a]-pyridine-3-carboxamide], the MEC came out at 1.00 µM.

As for `Cc1cc(OCc2c(F)cccc2F)c2nc(C)c(C(=O)NCC(C)(N)CC(C)C)n2c1` (single isomer, unassigned) [Example 219, ent-N-(2-Amino-2,4-dimethylpentyl)-8-[(2,6-difluorobenzyl)oxy]-2,6-dimethylimidazo[1,2-a]-pyridine-3-carboxamide], the MEC amounted to 0.30 µM.

For `Cc1cc(OCc2c(F)cccc2F)c2nc(C)c(C(=O)NCC(C)(N)CC(C)C)n2c1` (single isomer, unassigned) [Example 220, ent-N-(2-Amino-2,4-dimethylpentyl)-8-[(2,6-difluorobenzyl)oxy]-2,6-dimethylimidazo[1,2-a]-pyridine-3-carboxamide], the MEC worked out at 0.10 µM.

For the molecule `Cc1cc(OCc2c(F)cccc2F)c2nc(C)c(C(=O)NCC(N)C(C)C)n2c1` (single isomer, unassigned) [Example 223, ent-N-(2-Amino-3-methylbutyl)-8-[(2,6-difluorobenzyl)oxy]-2,6-dimethylimidazo[1,2-a]pyridine-3-carboxamide], the MEC came out at 0.30 µM.

Consider `Cc1cc(OCc2c(F)cccc2F)c2nc(C)c(C(=O)NCC(N)C(C)C)n2c1` (single isomer, unassigned) [Example 224, ent-N-(2-Amino-3-methylbutyl)-8-[(2,6-difluorobenzyl)oxy]-2,6-dimethylimidazo[1,2-a]pyridine-3-carboxamide], for which the MEC came out at 0.30 µM.

Take `Cc1nc2c(OCc3c(F)cccc3F)cc(Cl)cn2c1C(=O)NCC(C)(N)CC(C)C` (single isomer, unassigned) [Example 226, ent-N-(2-Amino-2,4-dimethylpentyl)-6-chloro-8-[(2,6-difluorobenzyl)oxy]-2-methylimidazo[1,2-a]pyridine-3-carboxamide]: the MEC was determined as 0.10 µM.

Turning to `Cc1nc2c(OCc3c(F)cccc3F)cc(Cl)cn2c1C(=O)NCC(C)(N)CC(C)C` (single isomer, unassigned) [Example 227, ent-N-(2-Amino-2,4-dimethylpentyl)-6-chloro-8-[(2,6-difluorobenzyl)oxy]-2-methylimidazo[1,2-a]pyridine-3-carboxamide], the MEC was found to be 0.30 µM.

As for `Cc1nc2c(OCc3c(F)cccc3F)cccn2c1C(=O)NCC(N)C(C)C` (single isomer, unassigned) [Example 228, ent-N-(2-Amino-3-methylbutyl)-8-[(2,6-difluorobenzyl)oxy]-2-methylimidazo[1,2-a]pyridine-3-carboxamide], the MEC turned out to be 1.00 µM.

Take `Cc1nc2c(OCc3c(F)cccc3F)cccn2c1C(=O)NCC(N)C(C)C` (single isomer, unassigned) [Example 229, ent-N-(2-Amino-3-methylbutyl)-8-[(2,6-difluorobenzyl)oxy]-2-methylimidazo[1,2-a]pyridine-3-carboxamide]: the MEC is 1.00 µM.

As for `Cc1nc2c(OCc3c(F)cccc3F)cccn2c1C(=O)NCC(N)C(F)(F)C(F)F` (single isomer, unassigned) [Example 231, ent-N-(2-Amino-3,3,4,4-tetrafluorobutyl)-8-[(2,6-difluorobenzyl)oxy]-2-methylimidazo[1,2-a]-pyridine-3-carboxamide], the MEC stood at 0.30 µM.

For `CCCC(C)(N)CNC(=O)c1c(C)nc2c(OCc3c(F)cccc3F)cc(C)cn12` (single isomer, unassigned) [Example 233, ent-N-(2-Amino-2-methylpentyl)-8-[(2,6-difluorobenzyl)oxy]-2,6-dimethylimidazo[1,2-a]pyridine-3-carboxamide], the MEC stood at 0.10 µM.

In the case of `CCCC(C)(N)CNC(=O)c1c(C)nc2c(OCc3c(F)cccc3F)cc(C)cn12` (single isomer, unassigned) [Example 234, ent-N-(2-Amino-2-methylpentyl)-8-[(2,6-difluorobenzyl)oxy]-2,6-dimethylimidazo[1,2-a]pyridine-3-carboxamide], the MEC amounted to 0.03 µM.

Consider `Cc1nc2c(OCc3c(F)cccc3F)cc(Cl)cn2c1C(=O)NCC(C)(N)C(F)(F)F` (single isomer, unassigned) [Example 237, ent-N-(2-Amino-3,3,3-trifluoro-2-methylpropyl)-6-chloro-8-[(2,6-difluorobenzyl)oxy]-2-methylimidazo[1,2-a]pyridine-3-carboxamide], for which the MEC turned out to be 0.30 µM.

Consider `Cc1nc2c(OCc3c(F)cccc3F)cc(Cl)cn2c1C(=O)NCC(C)(N)C(F)(F)F` (single isomer, unassigned) [Example 238, ent-N-(2-Amino-3,3,3-trifluoro-2-methylpropyl)-6-chloro-8-[(2,6-difluorobenzyl)oxy]-2-methylimidazo[1,2-a]pyridine-3-carboxamide], for which the MEC worked out at 1.00 µM.

Regarding `Cc1cc(OCc2c(F)cccc2F)c2nc(C)c(C(=O)NCC(C)(N)C(F)(F)F)n2c1` (single isomer, unassigned) [Example 240, ent-N-(2-Amino-3,3,3-trifluoro-2-methylpropyl)-8-[(2,6-difluorobenzyl)oxy]-2,6-dimethylimidazo-[1,2-a]pyridine-3-carboxamide], the MEC stood at 0.30 µM.

On to `Cc1cc(OCc2c(F)cccc2F)c2nc(C)c(C(=O)NCC(C)(N)C(F)(F)F)n2c1` (single isomer, unassigned) [Example 241, ent-N-(2-Amino-3,3,3-trifluoro-2-methylpropyl)-8-[(2,6-difluorobenzyl)oxy]-2,6-dimethylimidazo-[1,2-a]pyridine-3-carboxamide], for which the MEC was 0.30 µM.

Turning to `COCC(N)CNC(=O)c1c(C)nc2c(OCc3c(F)cccc3F)cc(C)cn12` (single isomer, unassigned) [Example 242, ent-N-(2-Amino-3-methoxypropyl)-8-[(2,6-difluorobenzyl)oxy]-2,6-dimethylimidazo[1,2-a]-pyridine-3-carboxamide], the MEC was found to be 0.30 µM.

On to `COCC(N)CNC(=O)c1c(C)nc2c(OCc3c(F)cccc3F)cc(C)cn12` (single isomer, unassigned) [Example 243, ent-N-(2-Amino-3-methoxypropyl)-8-[(2,6-difluorobenzyl)oxy]-2,6-dimethylimidazo[1,2-a]-pyridine-3-carboxamide], for which the MEC came to 1.00 µM.

For the molecule `CCCC(C)(N)CNC(=O)c1c(C)nc2c(OCc3c(F)cccc3F)cc(Cl)cn12` (single isomer, unassigned) [Example 245, ent-N-(2-Amino-2-methylpentyl)-6-chloro-8-[(2,6-difluorobenzyl)oxy]-2-methylimidazo[1,2-a]-pyridine-3-carboxamide], the MEC was 0.10 µM.
